Earlier results as cited in PMC10572662 (International Journal of Molecular Sciences, 2023).

set-up: method as in PMID 17601630; conditions: native βCD and commercial βCD derivatives

Row | Substance | water solubility
1 | O-methyl-βCD | > 500 mg/mL
2 | sulfobutylether-βCD | > 500 mg/mL
3 | 2-hydroxypropyl-βCD | 600 mg/mL
